Results as given in patent US11479546B2, “Antimalarial hexahydropyrimidine analogues” (UCB Biopharma SRL, priority 2018, dated 2022).
pIC50: −log10 of the molar value.

Each compound was assayed on Plasmodium falciparum 3D7 (assay: P. falciparum 3D7 asexual blood stage assay, Assay Procedure Version 1 (SYBR green readout)). Details: 3D7, Erythrocyte, Version 1 of the assay procedure (no asterisk), 72 h incubation in infected erythrocytes, 10,000 nM to 0.51 nM.
Assay type: cell-based
Protocol: Asexual Blood Stage Assay
The assay used to measure the effect of test compounds on a bloodstream stage of Plasmodium falciparum 3D7 strain employs SYBR green as the readout. This is a dye that binds to double stranded deoxyribonucleic acid (DNA) with a resulting increase in fluorescence, allowing detection of P. falciparum DNA in infected erythrocytes, and thereby providing a measure of parasite growth and propagation.
P. falciparum Culture Maintenance
Erythrocytes (A+blood) were prepared for both parasite culture and assay by washing 4 times with incomplete media (15.9 g RPMI 1640 (25 mM HEPES, L-glutamine), 1 g NaHCO3, 2 g glucose, 400 μL gentacin (500 mg/mL), 2 mL hypoxanthine solution (13.6 g/L in 0.1M NaOH pH 7.3) in 1 litre of media). The cells were centrifuged at 1800 g for 5 minutes, before decanting the supernatant and re-suspending in fresh incomplete media. On the final wash, the cells were re-suspended in complete media (incomplete media with 5 g/L AlbumaxII), and centrifuged at 1800 g for 3 minutes. This cell sediment was treated as 100% haematocrit.
P. falciparum 3D7 was cultured in erythrocytes at 5% haematocrit in complete media at 37° C. (1% O2, 3% CO2, balance N2). Cultures were split on a weekly basis to achieve a 1% parasitaemia in erythrocites at 5% haematocrit in fresh media. Culture media is replaced by fresh media every other day (2 times during the week).
Assay Procedure—Version 1
On day 1, test compounds were added to assay plates using Echo dispensing technology (3 fold dilution and 10 points titration). 50 nL of each compound dilution was added to 50 μL of culture (5% haematocrit, 0.5% parasitaemia) and incubated for 72 h at 37° C. (1% O2, 3% CO2, balance N2). Final concentrations of test compounds ranged from 10,000 nM to 0.51 nM, in […].
On day 4, 10 μL SYBR green (Invitrogen S7563 supplied as 10,000×concentrate in DMSO) pre-diluted to 3× concentrate with Lysis buffer (20 mM Tris pH 7.9, 5% EDTA, 0.16% w/v, 1.6% TX100 v/v) was added to the cultures and incubated in the dark, overnight, at room temperature.
On day 5, fluorescent signal was measured using a BioTek plate reader (excitation 485 nm, emission 528 nm). All data were processed using IDBS ActivityBase. Raw data were converted into percent inhibition through linear regression by setting the high inhibition control as 100% and the no inhibition control as 0%. Quality control criteria for passing plates were as follows: Z′>0.5, S:B>3, % CV(no inhibition control)<15. The formula used to calculate Z′ is
All EC50 curve fitting was undertaken using the following 4 parametric equation:
[formula] where A=% inhibition at bottom; B=% inhibition at top; C=EC50; D=slope; x=inhibitor concentration; and y=% inhibition. […] Assay Procedure—Version 2

Compound	pIC50
COc1cc(Nc2cccc([C@]3(C)CC(=O)N(C4CCOCC4)C(=N)N3)c2Cl)cc(OC)c1 [Example 161, (6S)-6-[2-Chloro-3-(3,5-dimethoxyanilino)phenyl]-2-imino-6-methyl-3-(tetrahydro-pyran-4-yl)hexahydropyrimidin-4-one]	5.77
COC(=O)c1cccc(Nc2cccc([C@]3(C)CC(=O)N(C4CCOCC4)C(=N)N3)c2Cl)c1 [Example 166, Methyl 3-{2-chloro-3-[(4S)-2-imino-4-methyl-6-oxo-1-(tetrahydropyran-4-yl)-hexahydropyrimidin-4-yl]-anilino}benzoate]	5.75
C[C@@]1(c2cccc(Nc3ccccc3)c2Cl)CC(=O)N(CC2(O)CC2)C(=N)N1 [Example 1, (6S)-6-(3-Anilino-2-chloro-phenyl)-3-[(1-hydroxy-cyclopropyl)methyl]-2-imino-6-methylhexahydropyrimidin-4-one]	6.40
C[C@@]1(c2ccc(F)c(Nc3ccc(F)cc3)c2Cl)CC(=O)N(C2CCOCC2)C(=N)N1 [Example 206, (6S)-6-[2-Chloro-4-fluoro-3-(4-fluoroanilino)phenyl]-2-imino-6-methyl-3-(tetrahydro-pyran-4-yl)hexahydropyrimidin-4-one]	6.61
C[C@@]1(c2cccc(Nc3ccccc3)c2Cl)CC(=O)N(CC2CCOCC2)C(=N)N1 [Example 3, (6S)-6-(3-Anilino-2-chloro-phenyl)-2-imino-6-methyl-3-(tetrahydropyran-4-ylmethyl)-hexahydropyrimidin-4-one]	7.10
C[C@@]1(c2cccc(Nc3ccc(C(F)(F)F)nc3)c2Cl)CC(=O)N(C2CCOCC2)C(=N)N1 [Example 31, (6S)-6-(2-Chloro-3-{[6-(trifluoromethyl)pyridin-3-yl]amino}phenyl)-2-imino-6-methyl-3-(tetrahydropyran-4-yl)hexahydropyrimidin-4-one]	6.37
C[C@@]1(c2cccc(Nc3ccc(Cl)cc3)c2Cl)CC(=O)N(C2CCOCC2)C(=N)N1 [Example 162, (6S)-6-[2-Chloro-3-(4-chloro-anilino)phenyl]-2-imino-6-methyl-3-(tetrahydropyran-4-yl)hexahydropyrimidin-4-one]	6.04
C[C@@]1(c2cccc(Nc3cc(F)c(F)cc3F)c2Cl)CC(=O)N(C2CCOCC2)C(=N)N1 [Example 38, (6S)-6-[2-Chloro-3-(2,4,5-trifluoroanilino)phenyl]-2-imino-6-methyl-3-(tetrahydro-pyran-4-yl)hexahydropyrimidin-4-one]	6.09
Cc1cccc(Nc2cccc([C@]3(C)CC(=O)N(C4CCOCC4)C(=N)N3)c2Cl)c1 [Example 8, (6S)-6-[2-Chloro-3-(3-methyl-anilino)phenyl]-2-imino-6-methyl-3-(tetrahydropyran-4-yl)hexahydropyrimidin-4-one]	6.48
C[C@@]1(c2cccc(Nc3ccccc3C#N)c2Cl)CC(=O)N(C2CCOCC2)C(=N)N1 [Example 17, 2-{2-Chloro-3-[(4S)-2-imino-4-methyl-6-oxo-1-(tetrahydro-pyran-4-yl)hexahydropyrimidin-4-yl]anilino}benzonitrile]	6.57
C[C@@]1(c2cccc(Nc3ccc(OC(F)F)cc3)c2Cl)CC(=O)N(C2CCOCC2)C(=N)N1 [Example 37, (6S)-6-{2-Chloro-3-[4-(difluoro-methoxy)anilino]phenyl}-2-imino-6-methyl-3-(tetrahydro-pyran-4-yl)hexahydropyrimidin-4-one]	5.94
C[C@@]1(c2cccc(Nc3cc(OC(F)(F)F)ccc3F)c2Cl)CC(=O)N(C2CCOCC2)C(=N)N1 [Example 22, (6S)-6-{2-Chloro-3-[2-fluoro-5-(trifluoromethoxy)anilino]-phenyl}-2-imino-6-methyl-3-(tetrahydropyran-4-yl)-hexahydropyrimidin-4-one]	5.82
Cc1cc(Nc2cccc([C@]3(C)CC(=O)N(C4CCOCC4)C(=N)N3)c2Cl)ccc1F [Example 10, (6S)-6-[2-Chloro-3-(4-fluoro-3-methylanilino)phenyl]-2-imino-6-methyl-3-(tetrahydropyran-4-yl)hexahydropyrimidin-4-one]	6.16
Cc1ccc(Nc2cccc([C@]3(C)CC(=O)N(C4CCOCC4)C(=N)N3)c2Cl)cc1 [Example 160, (6S)-6-[2-Chloro-3-(4-methyl-anilino)phenyl]-2-imino-6-methyl-3-(tetrahydropyran-4-yl)hexahydropyrimidin-4-one]	5.77
C[C@@]1(c2cccc(Nc3ccccc3)c2Cl)CC(=O)N([C@H]2CCOC2)C(=N)N1 (relative stereo) [Example 5, (6S)-6-(3-Anilino-2-chloro-phenyl)-2-imino-6-methyl-3-[(3S or 3R*)-tetrahydrofuran-3-yl]hexahydropyrimidin-4-one]	6.92
CC1(CN2C(=N)N[C@](C)(c3cccc(Nc4ccc(F)cc4)c3Cl)CC2=O)COC1 [Example 175, (6S)-6-[2-Chloro-3-(4-fluoro-anilino)phenyl]-2-imino-6-methyl-3-[(3-methyloxetan-3-yl)methyl]hexahydropyrimidin-4-one]	5.55
C[C@@]1(c2cccc(Nc3cccc(C#N)c3)c2Cl)CC(=O)N(C2CCOCC2)C(=N)N1 [Example 9, 3-{2-Chloro-3-[(4S)-2-imino-4-methyl-6-oxo-1-(tetrahydro-pyran-4-yl)hexahydropyrimidin-4-yl]anilino}benzonitrile]	6.48
C[C@@]1(c2cccc(Nc3ccc(Cl)c(F)c3)c2Cl)CC(=O)N(C2CCOCC2)C(=N)N1 [Example 33, (6S)-6-[2-Chloro-3-(4-chloro-3-fluoroanilino)phenyl]-2-imino-6-methyl-3-(tetrahydropyran-4-yl)hexahydropyrimidin-4-one]	5.74
C[C@@H]1C[C@H](N2C(=N)N[C@](C)(c3cccc(Nc4cnc(C5CC5)nc4)c3Cl)CC2=O)CCO1 (relative stereo) [Example 204, (6S)-6-{2-Chloro-3-[(2-cyclo-propylpyrimidin-5-yl)amino]-phenyl}-2-imino-6-methyl-3-[(2R*,4R*)-2-methyltetrahydro-pyran-4-yl]hexahydropyrimidin-4-one]	7.51
C[C@@]1(c2cccc(Nc3ccc(N4CCOCC4)nc3)c2Cl)CC(=O)N(C2CCOCC2)C(=N)N1 [Example 25, (6S)-6-(2-Chloro-3-{[6-(morpholin-4-yl)pyridin-3-yl]amino}phenyl)-2-imino-6-methyl-3-(tetrahydropyran-4-yl)hexahydropyrimidin-4-one]	6.09
C[C@@]1(c2cccc(Nc3cccnc3)c2Cl)CC(=O)N(C2CCOCC2)C(=N)N1 [Example 20, (6S)-6-[2-Chloro-3-(pyridin-3-ylamino)phenyl]-2-imino-6-methyl-3-(tetrahydropyran-4-yl)hexahydropyrimidin-4-one]	5.64
C[C@@]1(c2cccc(Nc3ccc(F)cc3)c2Cl)CC(=O)N([C@@H]2CCCOC2)C(=N)N1 (relative stereo) [Example 190, (6S)-6-[2-Chloro-3-(4-fluoro-anilino)phenyl]-2-imino-6-methyl-3-[(3R* or 3S)-tetrahydropyran-3-yl]-hexahydropyrimidin-4-one]	5.59
C[C@@]1(c2cccc(Nc3ccc(F)cc3)c2Cl)CC(=O)N(C2CCOCC2)C(=N)N1 [Example 12, (6S)-6-[2-Chloro-3-(4-fluoro-anilino)phenyl]-2-imino-6-methyl-3-(tetrahydropyran-4-yl)hexahydropyrimidin-4-one]	6.70
C[C@@]1(c2cccc(Nc3ccc(C#N)c(F)c3)c2Cl)CC(=O)N([C@H]2C[C@@](C)(O)C2)C(=N)N1 [Example 121, 4-{2-Chloro-3-[(4S)-1-(3-hydroxy-3-methylcyclobutyl)-2-imino-4-methyl-6-oxo-hexahydropyrimidin-4-yl]-anilino}-2-fluorobenzonitrile]	5.78
COc1cc(F)cc(Nc2cccc([C@]3(C)CC(=O)N(C4CCOCC4)C(=N)N3)c2Cl)c1 [Example 23, (6S)-6-[2-Chloro-3-(3-fluoro-5-methoxyanilino)phenyl]-2-imino-6-methyl-3-(tetrahydro-pyran-4-yl)hexahydropyrimidin-4-one]	5.87
C[C@@]1(c2cccc(Nc3cccc(F)c3)c2Cl)CC(=O)N(C2CCOCC2)C(=N)N1 [Example 168, (6S)-6-[2-Chloro-3-(3-fluoro-anilino)phenyl]-2-imino-6-methyl-3-(tetrahydropyran-4-yl)hexahydropyrimidin-4-one]	6.60
